Data: paper PMC4448982, “LP-925219 maximizes urinary glucose excretion in mice by inhibiting both renal SGLT1 and SGLT2” (Pharmacology Research & Perspectives, 2015)

Tests used:
[1] = molecular target: T1, intestinal SGLT1 (Mus musculus, UniProt Q8C3K6); experiment: Glucose-containing meal challenge in C57 mice; assay type: in vivo
T1 construct: from tissue; host or cells: small intestine of living male C57BL/6-Tyrc-Brd mice
T1 sequence (Q8C3K6 1-665): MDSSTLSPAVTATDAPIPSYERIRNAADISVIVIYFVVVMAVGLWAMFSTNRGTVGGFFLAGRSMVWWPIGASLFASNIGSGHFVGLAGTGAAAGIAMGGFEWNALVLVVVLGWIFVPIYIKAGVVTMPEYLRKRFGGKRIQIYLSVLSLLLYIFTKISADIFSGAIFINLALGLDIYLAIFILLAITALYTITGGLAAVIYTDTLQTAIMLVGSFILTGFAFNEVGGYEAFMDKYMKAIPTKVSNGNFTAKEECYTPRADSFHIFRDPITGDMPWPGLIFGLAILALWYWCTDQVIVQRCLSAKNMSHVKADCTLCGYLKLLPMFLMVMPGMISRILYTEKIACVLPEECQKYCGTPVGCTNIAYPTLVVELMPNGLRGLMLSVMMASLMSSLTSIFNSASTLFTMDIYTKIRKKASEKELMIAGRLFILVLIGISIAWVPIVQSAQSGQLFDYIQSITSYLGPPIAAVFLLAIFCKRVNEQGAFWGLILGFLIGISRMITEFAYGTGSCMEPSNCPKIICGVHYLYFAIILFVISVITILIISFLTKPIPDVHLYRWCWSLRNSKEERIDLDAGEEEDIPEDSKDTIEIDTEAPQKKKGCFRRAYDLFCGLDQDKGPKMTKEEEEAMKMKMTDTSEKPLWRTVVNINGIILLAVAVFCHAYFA
Procedure: A meal consisting of low-fat diet (10% kcal as fat, D12450B; Research Diets, New Brunswick, NJ) supplemented with glucose was prepared by adding 50 g of low-fat diet powder and 9.4 g of glucose to water with a final volume of 94 mL. At 8:30 am, C57 mice in the fed state received either vehicle or 50 mg/kg LP-925219 by oral gavage; 30 min later, at Time = 0, each mouse received 25 mL/kg of the above meal (9.2 g/kg glucose, 2.5 g/kg protein, 0.6 g/kg fat) by oral gavage as described previously (Powell et al. [2013b]). Blood obtained from unanesthetized mice at 0, 10, and 30 min by tail nick, and at 60 min by retro-orbital bleed, was assayed for whole blood glucose using an Accu-Chek Aviva glucometer (Roche Diagnostics, Indianapolis, IN). The blood obtained at 60 min was also used to measure circulating levels of total GLP-1 (tGLP-1; Glucagon-Like Peptide-1 Total ELISA Kit, catalog #EZGLP1T-36K, EMD Millipore, Billerica, MA) as described previously (Powell et al. [2013b]). After their blood was drawn at 60 min, mice were anesthetized with isoflurane (TW Medical Veterinary Supply, Lago Vista, TX) and then euthanized by cervical dislocation. Cecal contents were then collected and analyzed for glucose and pH as described previously (Powell et al. [2013b]). Blood glucose time-course data were converted to area under the curve (AUC) values by trapezoidal summation using GraphPad Prism v4.03.
Mice received either vehicle or LP-925219 at a dose of 50 mg/kg (n = 5 for each group) by oral gavage; 30 min later the mice received, by oral gavage at Time 0, a glucose-containing meal challenge. (A) Blood glucose levels were measured at 0, 10, 30, and 60 min; for each mouse, blood glucose levels were used to calculate an AUC value for statistical analysis. At 60 min, blood was obtained for (B) tGLP-1 levels, and cecal contents were obtained and assayed for (C) cecal glucose and (D) cecal pH. LP-925219-treated value different from vehicle, *P < 0.05, **P < 0.01, ***P < 0.001. AUC, area under the curve.

[2] = molecular target: T2, rat SGLT1 (Rattus norvegicus, UniProt P53790); experiment: 14C-AMG uptake assay, cells expressing rat SGLT1; assay type: cell-based; details: mean ± SD
T2 construct: expressed in transfected cells; host or cells: HEK293 (per abstract)
T2 sequence (P53790 1-665): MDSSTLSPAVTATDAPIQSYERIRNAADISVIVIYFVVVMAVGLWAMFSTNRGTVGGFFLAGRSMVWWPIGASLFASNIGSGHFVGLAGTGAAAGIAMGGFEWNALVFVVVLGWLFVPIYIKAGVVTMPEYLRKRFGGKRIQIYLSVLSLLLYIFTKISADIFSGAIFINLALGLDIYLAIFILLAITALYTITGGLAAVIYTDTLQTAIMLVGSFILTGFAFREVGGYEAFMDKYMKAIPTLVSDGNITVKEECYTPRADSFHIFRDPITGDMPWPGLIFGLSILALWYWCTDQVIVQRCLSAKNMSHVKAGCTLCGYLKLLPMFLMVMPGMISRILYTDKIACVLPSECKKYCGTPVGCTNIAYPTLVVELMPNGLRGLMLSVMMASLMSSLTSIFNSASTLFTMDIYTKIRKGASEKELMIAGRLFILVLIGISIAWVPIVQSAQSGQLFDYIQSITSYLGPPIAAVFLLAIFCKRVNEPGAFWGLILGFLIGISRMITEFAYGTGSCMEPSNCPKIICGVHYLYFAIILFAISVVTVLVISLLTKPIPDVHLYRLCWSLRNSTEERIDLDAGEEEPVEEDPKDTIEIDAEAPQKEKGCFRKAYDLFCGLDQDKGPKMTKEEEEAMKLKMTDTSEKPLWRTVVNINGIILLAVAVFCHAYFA
Excerpt: Methods for generating cell lines expressing mouse, rat, and dog SGLT1 and SGLT2 are published (Powell et al. [2013b], [2014]). Full-length coding sequence of human SGLT1 (NP_000334) and human SGLT2 (NP_003032.1) with an HA-tag at the N-terminus were cloned into the mammalian expression vector pIRESpuro2 (Clontech, Mountain View, CA). HEK293 cells (ATCC, Manassas, VA) were transfected with the pIRESpuro2 vector containing human SGLT1 or SGLT2 and bulk stable cell lines were selected in the presence of 0.5 μg/mL of puromycin.
Cell lines expressing SGLT1 or SGLT2 were plated into poly-D-lysine-coated 384-well plates, and culture overnight in cell growth medium. Cells were washed, and then incubated in uptake buffer ([…], […] KCl, […] CaCl2, […] MgCl2, […] HEPES/Tris, 1 mg/mL of bovine serum albumin, pH7.4) containing [^14C]α-methylglucopyranoside (^14C-AMG), a nonmetabolizable glucose analog specific for sodium-dependent glucose transporters (Wright and Turk [2004]). The inhibition of SGLT1 or SGLT2 was determined by measuring SGLT1/2-mediated ^14C-AMG uptake in the presence of increasing compound concentrations of LP-925219. […] Standard sigmoidal dose–response model curves were fitted, and the IC50 value was computed as the LP-925219 concentration that inhibited the ^14C-AMG uptake by 50% between baseline and maximum uptake.

[3] = 50 mg/kg oral gavage, 60 min after meal, vs vehicle

COc1ccc(Cc2cc([C@@H]3O[C@H](SC)[C@@H](O)[C@H](O)[C@H]3O)ccc2Cl)cc1 [LP-925219] was tested, and the “blood glucose AUC after meal challenge” value ([1]; 50 mg/kg oral gavage 30 min before meal, 0-60 min, vs vehicle, P < 0.05) was “significant decrease”, the cecal glucose [1, 3] was “more glucose” and the “cecal pH” value [1, 3] was “lower pH”. The “circulating total GLP-1” value [1, 3] was “increased levels”, the diarrhea ([1]; 50 mg/kg oral gavage, short-term study) was “not observed” and the IC50 [2] was 36.7 ± 7.2 nM.
